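Protocol summary: plate cells (96-well), add compound at 5 concentrations, incubate 48 h, interpolate endpoints linearly. GI50: concentration for 50% inhibition of growth.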 Activity calls are given as the source filed them. No stated cut-off is given here; in the data, active = GI50 up to about 1.1 µM and inactive = higher.
What was measured:
Assay in all cases: NCI tumour cell line growth inhibition, 48 h
XF498 = test system: XF498
A498 = test system: A498
SW-620 = test system: SW-620
SK-OV-3 = test system: SK-OV-3
OVCAR-4 = test system: OVCAR-4
NCI-H23 = test system: NCI-H23
786-0 = test system: 786-0
SN12C = test system: SN12C
NCI-H522 = test system: NCI-H522
KM12 = test system: KM12
M14 = test system: M14
HT-29 = test system: HT-29
RXF 393 = test system: RXF 393
MOLT-4 = test system: MOLT-4
OVCAR-3 = test system: OVCAR-3
HCC 2998 = test system: HCC 2998
IGROV-1 = test system: IGROV-1
TK-10 = test system: TK-10
NCI-H460 = test system: NCI-H460
K562 = test system: K562
SF-295 = test system: SF-295
UACC-257 = test system: UACC-257
SK-MEL-5 = test system: SK-MEL-5
RXF 631 = test system: RXF 631
UACC-62 = test system: UACC-62
SNB-75 = test system: SNB-75
HL-60 = test system: HL-60
A549 = test system: A549
LOX IMVI = test system: LOX IMVI
HOP-92 = test system: HOP-92
OVCAR-8 = test system: OVCAR-8
SK-MEL-28 = test system: SK-MEL-28
LXFL 529 = test system: LXFL 529
Malme-3M = test system: Malme-3M
SNB-19 = test system: SNB-19
DMS-273 = test system: DMS-273
HCT-116 = test system: HCT-116
EKVX = test system: EKVX
NCI-H226 = test system: NCI-H226
HOP-62 = test system: HOP-62
OVCAR-5 = test system: OVCAR-5
RPMI-8226 = test system: RPMI-8226
U-251 = test system: U-251
M19-MEL = test system: M19-MEL
UO-31 = test system: UO-31
SR = test system: SR
CCRF-CEM = test system: CCRF-CEM
COLO 205 = test system: COLO 205
CAKI-1 = test system: CAKI-1
KM-20L2 = test system: KM-20L2
DMS-114 = test system: DMS-114
HCT-15 = test system: HCT-15
ACHN = test system: ACHN
SF-268 = test system: SF-268
SNB-78 = test system: SNB-78
SF-539 = test system: SF-539
DLD-1 = test system: DLD-1
SK-MEL-2 = test system: SK-MEL-2

COC(=O)[C@@H]1C[C@H](c2ccc(OC)c(OC)c2)OC1=O.COC(=O)[C@H]1C[C@H](c2ccc(OC)c(OC)c2)OC1=O
GI50 (XF498): > 100 µM (inactive) | GI50 (A498): > 100 µM (inactive) | GI50 (SW-620): > 100 µM (inactive) | GI50 (SK-OV-3): > 100 µM (inactive) | GI50 (OVCAR-4): > 100 µM (inactive) | GI50 (NCI-H23): > 100 µM (inactive) | GI50 (786-0): > 100 µM (inactive) | GI50 (SN12C): > 100 µM (inactive) | GI50 (NCI-H522): > 100 µM (inactive) | GI50 (KM12): > 100 µM (inactive) | GI50 (M14): > 100 µM (inactive) | GI50 (HT-29): > 100 µM (inactive) | GI50 (RXF 393): > 100 µM (inactive) | GI50 (MOLT-4): > 100 µM (inactive) | GI50 (OVCAR-3): > 100 µM (inactive) | GI50 (HCC 2998): 61.9 µM (inactive) | GI50 (IGROV-1): > 100 µM (inactive) | GI50 (TK-10): > 100 µM (inactive) | GI50 (NCI-H460): > 100 µM (inactive) | GI50 (K562): > 100 µM (inactive) | GI50 (SF-295): > 100 µM (inactive) | GI50 (UACC-257): > 100 µM (inactive) | GI50 (SK-MEL-5): > 100 µM (inactive) | GI50 (RXF 631): > 100 µM (inactive) | GI50 (UACC-62): > 100 µM (inactive) | GI50 (SNB-75): > 100 µM (inactive) | GI50 (HL-60): > 100 µM (inactive) | GI50 (A549): > 100 µM (inactive) | GI50 (LOX IMVI): > 100 µM (inactive) | GI50 (HOP-92): > 100 µM (inactive) | GI50 (OVCAR-8): > 100 µM (inactive) | GI50 (SK-MEL-28): > 100 µM (inactive) | GI50 (LXFL 529): > 100 µM (inactive) | GI50 (Malme-3M): > 100 µM (inactive) | GI50 (SNB-19): > 100 µM (inactive) | GI50 (DMS-273): > 100 µM (inactive) | GI50 (HCT-116): > 100 µM (inactive) | GI50 (EKVX): > 100 µM (inactive) | GI50 (NCI-H226): > 100 µM (inactive) | GI50 (HOP-62): > 100 µM (inactive) | GI50 (OVCAR-5): > 100 µM (inactive) | GI50 (RPMI-8226): > 100 µM (inactive) | GI50 (U-251): > 100 µM (inactive) | GI50 (M19-MEL): > 100 µM (inactive) | GI50 (UO-31): > 100 µM (inactive) | GI50 (SR): > 100 µM (inactive) | GI50 (CCRF-CEM): > 100 µM (inactive) | GI50 (COLO 205): > 100 µM (inactive) | GI50 (CAKI-1): > 100 µM (inactive) | GI50 (KM-20L2): > 100 µM (inactive) | GI50 (DMS-114): > 100 µM (inactive) | GI50 (HCT-15): > 100 µM | GI50 (ACHN): > 100 µM (inactive) | GI50 (SF-268): > 100 µM (inactive) | GI50 (SNB-78): > 100 µM (inactive) | GI50 (SF-539): > 100 µM (inactive) | GI50 (DLD-1): > 100 µM (inactive)

CCN(CC)C(c1ccc(N(C)C)cc1)C(c1ccc(N(C)C)cc1)N(CC)CC (stereo not given)
GI50 (A498): > 72.9 µM (inactive) | GI50 (SW-620): 21.4 µM (inactive) | GI50 (SK-OV-3): > 72.9 µM (inactive) | GI50 (OVCAR-4): 12.9 µM (inactive) | GI50 (NCI-H23): 48.3 µM (inactive) | GI50 (786-0): 61.2 µM (inactive) | GI50 (SN12C): > 72.9 µM (inactive) | GI50 (NCI-H522): > 7.29 µM (inactive) | GI50 (KM12): 22.9 µM (inactive) | GI50 (M14): 33.3 µM (inactive) | GI50 (HT-29): 21.6 µM (inactive) | GI50 (RXF 393): 25.9 µM (inactive) | GI50 (MOLT-4): 30.3 µM (inactive) | GI50 (OVCAR-3): 21.5 µM (inactive) | GI50 (HCC 2998): 40.4 µM (inactive) | GI50 (IGROV-1): 47.6 µM (inactive) | GI50 (TK-10): > 72.9 µM (inactive) | GI50 (NCI-H460): 69.2 µM (inactive) | GI50 (K562): 15.8 µM (inactive) | GI50 (SF-295): 39.2 µM (inactive) | GI50 (UACC-257): 36.6 µM (inactive) | GI50 (SK-MEL-5): 16.8 µM (inactive) | GI50 (RXF 631): > 72.9 µM (inactive) | GI50 (UACC-62): 20.1 µM (inactive) | GI50 (SNB-75): 14.2 µM (inactive) | GI50 (HL-60): 14.8 µM (inactive) | GI50 (A549): > 72.9 µM (inactive) | GI50 (HOP-92): 13.2 µM (inactive) | GI50 (OVCAR-8): > 72.9 µM (inactive) | GI50 (SK-MEL-28): 26.4 µM (inactive) | GI50 (LXFL 529): 30.3 µM (inactive) | GI50 (Malme-3M): 17 µM (inactive) | GI50 (SNB-19): 62.8 µM (inactive) | GI50 (DMS-273): 44.8 µM (inactive) | GI50 (HCT-116): 35.2 µM (inactive) | GI50 (SK-MEL-2): 22.8 µM (inactive) | GI50 (EKVX): > 72.9 µM (inactive) | GI50 (NCI-H226): 27.3 µM (inactive) | GI50 (HOP-62): 61.5 µM (inactive) | GI50 (OVCAR-5): > 72.9 µM (inactive) | GI50 (RPMI-8226): 21.9 µM (inactive) | GI50 (U-251): > 72.9 µM (inactive) | GI50 (M19-MEL): 23.9 µM (inactive) | GI50 (CCRF-CEM): 26 µM (inactive) | GI50 (COLO 205): 43.3 µM (inactive) | GI50 (CAKI-1): 25.9 µM (inactive) | GI50 (KM-20L2): 64 µM (inactive) | GI50 (DMS-114): 14.5 µM (inactive) | GI50 (HCT-15): 30.2 µM | GI50 (ACHN): 47 µM (inactive) | GI50 (SF-268): 65 µM (inactive) | GI50 (SNB-78): 21.2 µM (inactive) | GI50 (SF-539): 36.5 µM (inactive)
